# Reference: patent publication US20250042898A1, “Pharmaceutical Compounds And Compositions As c-Kit Kinase Inhibitors” (Enanta Pharmaceuticals, Inc., priority 2023, published 2025)
# Columns and labels:
# [1] = molecular target: Recombinant human c-KIT kinase (Homo sapiens (Human), UniProt P10721); assay: c-KIT Kinase Chemiluminescence Assay (ADP-Glo); type: biochemical; settings: recombinant human c-KIT 25 ng, ATP 50 μM, polyEY substrate, ADP-Glo luminescence
# Source text: Staurosporine (AM-2282) and Imatinib (STI571) were purchased from Selleck Chemicals LLC (Houston, TX). The c-KIT reference compound THB001 (EP-053504) was synthesized by Enanta Pharmaceuticals, Inc. (Watertown, MA). The c-KIT Kinase Enzyme System (V4498) and ADP-Glo™ Kinase Assay kit (V6930) were purchased from Promega (Madison, WI). DMSO (D2650) was purchased from Sigma-Aldrich (Burlington, MA). ECHO-650 acoustic liquid handling system (67/492,212) and 384-well LDV ECHO source plates (LP-0200) were purchased from Labcyte, Inc (San Jose, CA). Envision Multimode Plate Reader (2104/464466) and ProxiPlate-384 Plus White 384-shallow well microplates (6008280) were purchased from PerkinElmer (Waltham, MA).
# c-KIT Kinase Chemiluminescence Assay:
# IC50 determination. Test compounds were dispersed into a 384-well low volume while ProxiPlate microplate from a DMSO solution using an ECHO 650 acoustic dispenser to generate a 11-point, 3.162-fold dilution, concentration curve starting at 10 μM in duplicate. Kinase Reaction: The kinase assay was based on the recommended protocol by c-KIT Kinase Enzyme System from Promega. Recombinant human c-KIT kinase in 3 μL of assay buffer (40 mM Tris pH 7.5, 20 mM MgCl2, 0.1 mg/mL BSA and 50 μM DTT) was added to the test or high control wells and 3 μL of assay buffer was added to the low control wells. The microplate was centrifuged at 800 rotations per minute (rpm) for 60 s and incubated at room temperature (RT) for 30 min. Next, 2 μL of buffered ATP and polyEY substrate solution was added to all wells. The microplate was centrifuged at 800 rpm for 60 s and incubated at RT for 2 h. The final assay contained c-KIT (25 ng), ATP (50 μM), polyEY substrate (0.2 μg/μL), test compounds (0-10 μM) and DMSO (1.7%) in 5 μL assay buffer. ADP detection with ADP-Glo™ Kinase Assay: After the kinase reaction incubation, 5 μL of ADP-Glo™ reagent was added to all wells. The microplate was centrifuged at 800 rpm for 60 s and incubated at RT for 40 min. Ten microliter (10 μL) of Kinase Detection Reagent (Luciferin-Luciferase system) was then added to all wells. The microplate was centrifuged at 800 rpm for 60 s and incubated at RT for 60 min. Kinase activity was measured as increase in luminescence at RT in an Envision plate reader equipped with 560 nm filters and operating in endpoint mode.
# Data Analysis: Endpoint chemiluminescence from high and low control wells were used to calculate normalized c-KIT activity at various concentrations of test compounds. The normalized activities were fitted to inhibitor-versus-normalized response fit in GraphPad Prism 7 to determine half-maximal inhibitory concentration (IC50) and hill coefficient values (H).
# c-KIT activity (%)=100/(1+I^H/IC50^H).
# Where I is the inhibitor concentration and H is the Hill coefficient.
# IC50 ranges are reported as follows: A<100 nM; B 0.1-1 μM; C>1 μM.
# M-07e cells = assay: M-07e Cellular Assay (SCF-mediated cell proliferation, CellTiter Glo); type: cell-based; settings: Homo sapiens, SCF at EC90, 72 hours incubation, CellTiter Glo cell viability, read-out: M-7e EC50
# Experimental: M-07e cells (Creative Bioarray, CSC-C0249) which endogenously express human c-KIT were used to evaluate the effect of compounds on stem cell factor (SCF)-mediated cell proliferation. M-07e cells were cultured in growth media (RPMI+10% FBS+1% penicillin/streptomycin+10 ng/mL GM-CSF) at 5E5-1.5E6 cells/mL, replenishing media every 3-4 days. 1.5E4 cells were seeded per well in 384 well tissue culture treated plates in […] assay media (RPMI+10% FBS+1% penicillin/streptomycin) without growth factor stimulation and incubated at 37° C. in a CO2 humidity-controlled incubator. Twenty-four hours later, three-fold serially diluted test compounds in media containing SCF (at the previously determined EC90) were added to the plated M-07e cells and incubated for an additional 72 hours. Cell viability was determined by adding 25 μL CellTiter Glo (Promega) to the cells and the luminescence was measured using a Perkin Elmer Envision plate reader. The EC50 was determined using GraphPad Prism. Percent cell growth was determined after normalizing the curve to the mean RLU high control (no compound control wells) at 100% and the mean RLU low control (no SCF control wells) at 0%. EC50 curves were generated using a variable slope four-parameter logistic model with equation […]. ECso ranges are reported as follows: A<100 nM; B 0.1-1 μM; C>1 μM.
# Sequence of Recombinant human c-KIT kinase (P10721 26-976): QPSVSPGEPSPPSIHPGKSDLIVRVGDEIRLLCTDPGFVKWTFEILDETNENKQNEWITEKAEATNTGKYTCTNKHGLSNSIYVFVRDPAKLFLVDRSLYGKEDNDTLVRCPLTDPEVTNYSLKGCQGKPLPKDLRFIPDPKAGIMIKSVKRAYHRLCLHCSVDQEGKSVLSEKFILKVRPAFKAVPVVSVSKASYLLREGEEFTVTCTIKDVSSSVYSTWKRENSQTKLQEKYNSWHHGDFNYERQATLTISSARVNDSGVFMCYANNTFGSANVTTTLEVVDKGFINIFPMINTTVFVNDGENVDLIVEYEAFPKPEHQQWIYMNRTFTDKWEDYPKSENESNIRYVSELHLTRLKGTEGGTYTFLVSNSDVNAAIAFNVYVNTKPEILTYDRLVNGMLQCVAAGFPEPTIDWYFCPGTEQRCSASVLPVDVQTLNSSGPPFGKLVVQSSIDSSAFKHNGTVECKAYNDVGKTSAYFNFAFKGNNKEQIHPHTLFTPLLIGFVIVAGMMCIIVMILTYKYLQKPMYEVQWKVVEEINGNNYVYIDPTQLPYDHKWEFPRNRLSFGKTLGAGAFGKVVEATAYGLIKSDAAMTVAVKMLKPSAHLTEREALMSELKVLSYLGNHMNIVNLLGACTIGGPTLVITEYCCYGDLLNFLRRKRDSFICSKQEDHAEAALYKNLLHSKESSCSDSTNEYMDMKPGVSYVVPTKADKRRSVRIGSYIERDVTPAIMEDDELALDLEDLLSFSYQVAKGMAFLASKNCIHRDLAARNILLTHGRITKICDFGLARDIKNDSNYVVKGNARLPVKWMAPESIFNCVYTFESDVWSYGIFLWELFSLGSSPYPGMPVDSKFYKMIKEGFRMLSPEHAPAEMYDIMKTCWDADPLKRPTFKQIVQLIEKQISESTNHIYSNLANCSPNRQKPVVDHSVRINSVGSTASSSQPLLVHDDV
SMILES,IC50 [1],EC50 (M-07e cells)
Cc1sc(-c2noc([C@H]3C[C@@H]3F)n2)cc1NC(=O)c1cnc2ccccn12 [Example 3],100 to 1000 nM,100 to 1000 nM
Cc1ncc(-c2ncc(OC(F)(F)F)cn2)cc1NC(=O)c1cnc2ccc(N3CC4(C3)CC(O)(C(F)F)C4)cn12 [Example 14],> 1000 nM,–
Cc1ncc(-c2noc([C@H]3C[C@@H]3F)n2)cc1NC(=O)c1cnc2ccc(N3CC4(C3)CC(O)(C(F)F)C4)cn12 [Example 15],100 to 1000 nM,–
Cc1ncc(-c2nnn(C3CC(F)(F)C3)n2)cc1NC(=O)c1cnc2ccc(N3CC4(C3)CC(O)(C(F)F)C4)cn12 [Example 16],100 to 1000 nM,–
Cc1ncc(-c2noc([C@H]3C[C@@H]3F)n2)cc1NC(=O)c1cnc2cc(N3CC4(C3)CC(O)(C(F)F)C4)ccn12 [Example 17],100 to 1000 nM,–

# The next lines start with results.
IC50 [1],SMILES,EC50 (M-07e cells)
> 1000 nM,O=C(Nc1cc(-c2noc([C@H]3C[C@@H]3F)n2)ccn1)c1cnc2ccccn12 [Example 1],> 1000 nM
> 1000 nM,O=C(Nc1cc(-c2noc(C3CC(F)(F)C3)n2)ccn1)c1cnc2ccccn12 [Example 2],> 1000 nM
100 to 1000 nM,Cc1sc(-c2noc(C3CC(F)(F)C3)n2)cc1NC(=O)c1cnc2ccccn12 [Example 4],100 to 1000 nM
